Measurements as given in patent US20260183320A1, “METHOD FOR TREATING CANCER BY COMBINING ALKYLATING AGENT PRODRUG AND CELL CYCLE INHIBITOR” (ASCENTAWITS PHARMACEUTICALS, LTD., priority 2022, published 2026).

Experiments:
HT29 cell line = HT29 cell line proliferation inhibition assay under normoxia and hypoxia (CTG); type: cell-based; details: for additive cytotoxic effect in combination therapy with adavosertib / additive cytotoxic effect in combination therapy with ceralasertib: HT29 (p53-deficient); for Ratio single/combo under Hypoxia / Ratio single/combo under Normoxia / Normoxia/Hypoxia Ratio: HT29; for IC50: Homo sapiens, HT-29, HT29
Description: (§1) 24-well plates with glass inserts were used in assays under hypoxia, and ordinary plastic 24-well plates were used in assays under normoxia. • 2) The cells were incubated overnight at 37° C. in an incubator with 5% CO2. • 3) Treatment with Compounds
(§2) A hypoxia workstation was tuned to create a hypoxic environment, and an oxygen indicator was used to confirm the hypoxia in the workstation.
(§3) After cell plating for 24 hours, the 24-well plates with glass inserts were transferred into the hypoxia workstation.
(§4) The 24-well plates were placed on a shaker, uncovered and shaken to allow air exchange for 5 min.
(§5) For each well for combination therapy, 5 or 10 μL of medium was removed and 5 μL of adavosertib (to a final concentration of 1 or 10 μM) or ceralasertib (to a final concentration of 200 or 2000 μM), followed by incubation for 2 h.
(§6) To each well, 5 or 10 μL of the compound was added at a 100× concentration. Three replicate wells were set up for each group.
(§7) Gentle shaking was carried out until homogeneous mixing of the compound, and the 24-well plates were incubated for 3 hours in the hypoxia workstation with their lids being half opened.
(§8) 24 hours after plating of the cells, for each well for combination therapy, 5 or 10 μL of medium was removed and 5 μL of adavosertib (to a final concentration of 1 or 10 μM) or ceralasertib (to a final concentration of 200 or 2000 μM), followed by incubation for 2 h.

H460 cell line = H460 cell line proliferation inhibition assay under normoxia and hypoxia (CTG); type: cell-based; details: for IC50: Homo sapiens, NCI-H460, H460
Description: as §1, §2, §3, §4, §5, §6, §7, §8
In the H460 cell proliferation inhibition assays, adavosertib was added to final concentrations of 3 μM and 30 μM, and ceralasertib was added to final concentrations of 2 μM, 20 µM and 1000 μM.

[1] = H460 (wild-type p53), normoxia or hypoxia

## Cn1c(COP(=O)(NCCBr)NCCBr)cnc1[N+](=O)[O-] [TH-302]
HT29 cell line; adavosertib at a high concentration, hypoxia
  additive cytotoxic effect in combination therapy with adavosertib: significant additive cytotoxic effect
HT29 cell line; ceralasertib at a high concentration, hypoxia
  additive cytotoxic effect in combination therapy with ceralasertib: significant additive cytotoxic effect
HT29 cell line; normoxia
  additive cytotoxic effect in combination therapy with adavosertib: did not exhibit any significant additive cytotoxic effects
  additive cytotoxic effect in combination therapy with ceralasertib: did not exhibit any significant additive cytotoxic effects
HT29 cell line; 1 μM adavosertib
  Ratio single/combo under Hypoxia: 2.49
  Ratio single/combo under Normoxia: 2.41
HT29 cell line; 10 μM adavosertib
  Ratio single/combo under Hypoxia: 8.68
  Ratio single/combo under Normoxia: 6.57
HT29 cell line; 200 μM ceralasertib
  Ratio single/combo under Hypoxia: 7.11
  Ratio single/combo under Normoxia: 1.24
HT29 cell line; 2000 μM ceralasertib
  Ratio single/combo under Hypoxia: >44.66
  Ratio single/combo under Normoxia: 2.77
HT29 cell line; monotherapy, Table 16
  Normoxia/Hypoxia Ratio: 74.35
HT29 cell line; monotherapy, Table 18
  Normoxia/Hypoxia Ratio: 51.62
HT29 cell line; with 1 μM adavosertib
  Normoxia/Hypoxia Ratio: 76.80
HT29 cell line; with 10 μM adavosertib
  Normoxia/Hypoxia Ratio: 98.18
HT29 cell line; with 200 μM ceralasertib
  Normoxia/Hypoxia Ratio: 294.78
HT29 cell line; with 2000 μM ceralasertib
  Normoxia/Hypoxia Ratio: >821.56
HT29 cell line; monotherapy, hypoxia, adavosertib series (Table 16)
  IC50: 23.4 µM
HT29 cell line; monotherapy, hypoxia, ceralasertib series (Table 18)
  IC50: 14.3 µM
HT29 cell line; monotherapy, normoxia, adavosertib series (Table 16)
  IC50: ~1740 µM
HT29 cell line; monotherapy, normoxia, ceralasertib series (Table 18)
  IC50: 738 µM
HT29 cell line; with 1 μM adavosertib, hypoxia
  IC50: 9.38 µM
HT29 cell line; with 1 μM adavosertib, normoxia
  IC50: 720 µM
HT29 cell line; with 10 μM adavosertib, hypoxia
  IC50: 2.69 µM
HT29 cell line; with 10 μM adavosertib, normoxia
  IC50: 264 µM
HT29 cell line; with 200 μM ceralasertib, hypoxia
  IC50: 2.01 µM
HT29 cell line; with 200 μM ceralasertib, normoxia
  IC50: 592 µM
HT29 cell line; with 2000 μM ceralasertib, hypoxia
  IC50: < 0.32 µM
HT29 cell line; with 2000 μM ceralasertib, normoxia
  IC50: 266 µM
H460 cell line; [1]
  additive cytotoxic effect in combination therapy with adavosertib: did not exhibit any significant additive cytotoxic effects
  additive cytotoxic effect in combination therapy with ceralasertib: did not exhibit any significant additive cytotoxic effects
H460 cell line; H460, 2 μM ceralasertib
  Ratio combo/single under Normoxia: 1.07
  Ratio single/combo under Hypoxia: 1.71
H460 cell line; H460, 3 μM adavosertib
  Ratio single/combo under Hypoxia: 1.56
  Ratio single/combo under Normoxia: 1.12
H460 cell line; H460, 20 μM ceralasertib
  Ratio single/combo under Hypoxia: 1.49
  Ratio single/combo under Normoxia: 1.05
H460 cell line; H460, 30 μM adavosertib
  Ratio single/combo under Hypoxia: 2.14
H460 cell line; H460, 1000 μM ceralasertib
  Ratio single/combo under Hypoxia: >6.17
  Ratio single/combo under Normoxia: 1.36
H460 cell line; H460, monotherapy, Table 17
  Normoxia/Hypoxia Ratio: 824.83
H460 cell line; H460, monotherapy, Table 19
  Normoxia/Hypoxia Ratio: 1737.84
H460 cell line; H460, with 2 μM ceralasertib
  Normoxia/Hypoxia Ratio: 3190.74
H460 cell line; H460, with 3 μM adavosertib
  Normoxia/Hypoxia Ratio: 1448.06
H460 cell line; H460, with 20 μM ceralasertib
  Normoxia/Hypoxia Ratio: 2464.52
H460 cell line; H460, with 30 μM adavosertib
  Normoxia/Hypoxia Ratio: 1518.50
H460 cell line; H460, with 1000 μM ceralasertib
  Normoxia/Hypoxia Ratio: >7853.33
H460 cell line; monotherapy, hypoxia, adavosertib series (Table 17)
  IC50: 0.0255 µM
H460 cell line; monotherapy, hypoxia, ceralasertib series (Table 19)
  IC50: 0.0185 µM
H460 cell line; monotherapy, normoxia, adavosertib series (Table 17)
  IC50: 21 µM
H460 cell line; monotherapy, normoxia, ceralasertib series (Table 19)
  IC50: 32.1 µM
H460 cell line; with 2 μM ceralasertib, hypoxia
  IC50: 0.0108 µM
H460 cell line; with 2 μM ceralasertib, normoxia
  IC50: 34.5 µM
H460 cell line; with 3 μM adavosertib, hypoxia
  IC50: 0.0163 µM
H460 cell line; with 3 μM adavosertib, normoxia
  IC50: 23.6 µM
H460 cell line; with 20 μM ceralasertib, hypoxia
  IC50: 0.0124 µM
H460 cell line; with 20 μM ceralasertib, normoxia
  IC50: 30.6 µM
H460 cell line; with 30 μM adavosertib, hypoxia
  IC50: 0.0119 µM
H460 cell line; with 30 μM adavosertib, normoxia
  IC50: 18.1 µM
H460 cell line; with 1000 μM ceralasertib, hypoxia
  IC50: < 0.003 µM
H460 cell line; with 1000 μM ceralasertib, normoxia
  IC50: 23.6 µM
